Measured values from patent US9708357B2, “4′-azido, 3′-fluoro substituted nucleoside derivatives as inhibitors of HCV RNA replication” (Riboscience LLC, priority 2011, dated 2017).

How the values were obtained:
in vitro = conditions: human
[1] = system: HCV genotype 1b subgenomic replicon (2209-23 cells); test: HCV Replicon assay (Renilla luciferase reporter); format: cell-based; conditions: Hepatitis C virus, Huh-7, 72 h; genotype 1b replicon, 2209-23 Huh7 cells, three days incubation, Renilla luciferase readout

SMILES | CC50 (in vitro) [µM] | IC50 [1] [µM]
CC(C)OC(=O)[C@H](C)NP(=O)(O)OC[C@@]1(N=[N+]=[N-])O[C@@H](n2ccc(N)nc2=O)[C@H](O)[C@@H]1F [Compound I-8, (S)-2-{[(2R,3S,4S,5R)-5-(4-Amino-2-oxo-2H-pyrimidin-1-yl)-2-azido-3-fluoro-4-hydroxy-tetrahydro-furan-2-ylmethoxy]-hydroxy-phosphorylamino}-propionic acid isopropyl ester] | > 100 | > 100
CC(C)OC(=O)[C@H](C)NP(=O)(OC[C@@]1(N=[N+]=[N-])O[C@@H](n2ccc(N)nc2=O)[C@H](O)[C@@H]1F)Oc1ccccc1 (stereo partly drawn) [Compound I-7, (S)-2-{[(2R,3S,4S,5R)-5-(4-Amino-2-oxo-2H-pyrimidin-1-yl)-2-azido-3-fluoro-4-hydroxy-tetrahydro-furan-2-ylmethoxy]-phenoxy-phosphorylamino}-propionic acid isopropyl ester] | > 100 | 56
C[C@H](NP(=O)(OC[C@@]1(N=[N+]=[N-])O[C@@H](n2ccc(N)nc2=O)[C@H](O)[C@@H]1F)Oc1cccc2ccccc12)C(=O)OCc1ccccc1 (stereo partly drawn) [Compound I-5, (S)-2-[[(2R,3S,4S,5R)-5-(4-Amino-2-oxo-2H-pyrimidin-1-yl)-2-azido-3-fluoro-4-hydroxy-tetrahydro-furan-2-ylmethoxy]-(naphthalen-1-yloxy)-phosphorylamino]-propionic acid benzyl ester] | 91.2 | 1.54
CCC(=O)O[C@H]1[C@H](n2ccc(N)nc2=O)O[C@@](COP(=O)(N[C@@H](C)C(=O)OC(C)C)Oc2cccc3ccccc23)(N=[N+]=[N-])[C@H]1F (stereo partly drawn) [Compound I-9, (S)-2-[[(2R,3S,4S,5R)-5-(4-Amino-2-oxo-2H-pyrimidin-1-yl)-2-azido-3-fluoro-4-propionyloxy-tetrahydro-furan-2-ylmethoxy]-(naphthalen-1-yloxy)-phosphorylamino]-propionic acid isopropyl ester] | 58 | 27
CCOC(=O)[C@H](C)NP(=O)(OC[C@@]1(N=[N+]=[N-])O[C@@H](n2ccc(=O)[nH]c2=O)[C@H](O)[C@@H]1F)Oc1ccccc1 (stereo partly drawn) [Compound I-2, (S)-2-{[(2R,3S,4S,5R)-2-Azido-5-(2,4-dioxo-3,4-dihydro-2H-pyrimidin-1-yl)-3-fluoro-4-hydroxy-tetrahydro-furan-2-ylmethoxy]-phenoxy-phosphorylamino}-propionic acid ethyl ester] | > 100 | 39.8
CC(C)OC(=O)[C@H](C)NP(=O)(OC[C@@]1(N=[N+]=[N-])O[C@@H](n2ccc(N)nc2=O)[C@H](O)[C@@H]1F)Oc1cccc2ccccc12 (stereo partly drawn) [Compound I-4, (S)-2-[[(2R,3S,4S,5R)-5-(4-Amino-2-oxo-2H-pyrimidin-1-yl)-2-azido-3-fluoro-4-hydroxy-tetrahydro-furan-2-ylmethoxy]-(naphthalen-1-yloxy)-phosphorylamino]-propionic acid isopropyl ester] | > 100 | > 100
CCOC(=O)[C@H](C)NP(=O)(OC[C@@]1(N=[N+]=[N-])O[C@@H](n2ccc(=O)[nH]c2=O)[C@H](O)[C@@H]1F)Oc1cccc2ccccc12 (stereo partly drawn) [Compound I-3, (S)-2-[[(2R,3S,4S,5R)-2-Azido-5-(2,4-dioxo-3,4-dihydro-2H-pyrimidin-1-yl)-3-fluoro-4-hydroxy-tetrahydro-furan-2-ylmethoxy]-(naphthalen-1-yloxy)-phosphorylamino]-propionic acid ethyl ester] | > 100 | 79.1
CCOC(=O)[C@H](C)NP(=O)(OC[C@@]1(N=[N+]=[N-])O[C@@H](n2ccc(N)nc2=O)[C@H](O)[C@@H]1F)Oc1cccc2ccccc12 (stereo partly drawn) [Compound I-6, (S)-2-[[(2R,3S,4S,5R)-5-(4-Amino-2-oxo-2H-pyrimidin-1-yl)-2-azido-3-fluoro-4-hydroxy-tetrahydro-furan-2-ylmethoxy]-(naphthalen-1-yloxy)-phosphorylamino]-propionic acid ethyl ester] | > 100 | 32
CC(C)OC(=O)[C@H](C)NP(=O)(OC[C@@]1(N=[N+]=[N-])O[C@@H](n2ccc(=O)[nH]c2=O)[C@H](O)[C@@H]1F)Oc1ccccc1 (stereo partly drawn) [Compound I-1, (S)-2-{[(2R,3S,4S,5R)-2-Azido-5-(2,4-dioxo-3,4-dihydro-2H-pyrimidin-1-yl)-3-fluoro-4-hydroxy-tetrahydro-furan-2-ylmethoxy]-phenoxy-phosphorylamino}-propionic acid isopropyl ester] | > 100 | > 100
